Each structure is given as a SMILES string.

Assay type in all cases: in vivo
For assay [1], the system named is redroot pigweed (Amaranthus retroflexus, AMARE). Nature of the assay: Pre-emerge test, greenhouse herbicide activity screening. As to conditions: Amaranthus retroflexus, pre-emergence, 336 h, read-out: Pre-emerge Herbicidal Activity AMARE. In short, it runs like this:
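Visual ratings on a 0-100 scale (0 no damage, 100 all plants dead) were taken at 14 days after treatment. Rates of 15-1000 g ai/ha in acetone, 187 l/ha, were sprayed onto soil one day after planting (pre-emerge) or onto 2-3 leaf plants with 0.25% v/v surfactant (post-emerge).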

The test system of assay [2] is velvetleaf (Abutilon theophrasti, ABUTH). The description is as above. Particulars: Abutilon theophrasti, pre-emergence, 336 h, read-out: Pre-emerge Herbicidal Activity ABUTH. In short, it runs like this: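 Fourteen days after spraying, crop and weed injury was graded visually from 0, no effect, to 100, every plant dead. Test substances were dissolved in acetone and applied at 15–1000 g ai/ha with a flat-fan nozzle. Application was either pre-emergence, one day after sowing, or post-emergence at the 2–3 leaf stage.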

In assay [3] the test system is barnyardgrass (Echinochloa crus-galli, ECHCG). As to the kind of experiment: Post-emerge test, greenhouse herbicide activity screening. Particulars: post-emerge; for pest or weed control at 63 g/ha / pest or weed control at 250 g/ha: Echinochloa crus-galli, post-emergence, 336 h, phytotoxicity rating 0-100 at 14 days after application, read-out: Post-emerge Herbicidal Activity ECHCG; for phytotoxicity rating ECHCG: 14 days after application, rating scale 0-100. The method in brief: (§1)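 Compounds in acetone were track-sprayed at 15-1000 g ai/ha (187 l/ha) on sandy loam pots: pre-emerge one day after seeding, post-emerge at 2-3 leaf stage with 0.25% v/v non-ionic surfactant. Phytotoxicity was rated 14 days later on a 0 (no damage) to 100 (complete death) scale.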

The test system of assay [4] is green foxtail (Setaria viridis, SETVI). The description is as above. Particulars: post-emerge; for pest or weed control at 63 g/ha / pest or weed control at 250 g/ha: Setaria viridis, post-emergence, 336 h, phytotoxicity rating 0-100 at 14 days after application, read-out: Post-emerge Herbicidal Activity SETVI; for phytotoxicity rating SETVI: 14 days after application, rating scale 0-100. The method in brief:
as §1

Assay [5] has as its system ivyleaf morningglory (Ipomoea hederacea, IPOHE). Described as above. Particulars: post-emerge; for pest or weed control at 63 g/ha / pest or weed control at 250 g/ha: Ipomoea, post-emergence, 336 h, phytotoxicity rating 0-100 at 14 days after application, read-out: Post-emerge Herbicidal Activity IPOHE; for phytotoxicity rating IPOHE: 14 days after application, rating scale 0-100. In short, it runs like this:
as §1

Assay [6] deals with johnsongrass (Sorghum halepense, SORHA). Described as above. Particulars: post-emerge; for pest or weed control at 63 g/ha / pest or weed control at 250 g/ha: Sorghum halepense, post-emergence, 336 h, phytotoxicity rating 0-100 at 14 days after application, read-out: Post-emerge Herbicidal Activity SORHA; for phytotoxicity rating SORHA: 14 days after application, rating scale 0-100. The method in brief:
as §1

Assay [7] concerns lambsquarters (Chenopodium album, CHEAL). The assay is described as above. Particulars: post-emerge; for pest or weed control at 63 g/ha / pest or weed control at 250 g/ha: Chenopodium album, post-emergence, 336 h, phytotoxicity rating 0-100 at 14 days after application, read-out: Post-emerge Herbicidal Activity CHEAL; for phytotoxicity rating CHEAL: 14 days after application, rating scale 0-100. The method in brief: as §1

In assay [8] the test system is large crabgrass (Digitaria sanguinalis, DIGSA). The description is as above. Particulars: post-emerge; for pest or weed control at 63 g/ha / pest or weed control at 250 g/ha: Digitaria sanguinalis, post-emergence, 336 h, phytotoxicity rating 0-100 at 14 days after application, read-out: Post-emerge Herbicidal Activity DIGSA; for phytotoxicity rating DIGSA: 14 days after application, rating scale 0-100. In short, it runs like this: as §1

Assay [9] relates to redroot pigweed (Amaranthus retroflexus, AMARE). The description is as above. As to conditions: post-emerge; for pest or weed control at 63 g/ha / pest or weed control at 250 g/ha: Amaranthus retroflexus, post-emergence, 336 h, phytotoxicity rating 0-100 at 14 days after application, read-out: Post-emerge Herbicidal Activity AMARE; for phytotoxicity rating AMARE: 14 days after application. In short, it runs like this: as §1

In assay [10] the test system is sicklepod (Cassia obtusifolia, CASOB). The description is as above. Particulars: post-emerge; for pest or weed control at 63 g/ha / pest or weed control at 250 g/ha: Senna obtusifolia, post-emergence, 336 h, phytotoxicity rating 0-100 at 14 days after application, read-out: Post-emerge Herbicidal Activity CASOB; for phytotoxicity rating CASOB: 14 days after application, rating scale 0-100. In short, it runs like this:
as §1

Assay [11] has as its system velvetleaf (Abutilon theophrasti, ABUTH). Described as above. Particulars: post-emerge; for pest or weed control at 63 g/ha / pest or weed control at 250 g/ha: Abutilon theophrasti, post-emergence, 336 h, phytotoxicity rating 0-100 at 14 days after application, read-out: Post-emerge Herbicidal Activity ABUTH; for phytotoxicity rating ABUTH: 14 days after application, rating scale 0-100. The method in brief: as §1

Where [12] appears, read: pre-emerge, rate 63 g ai/ha, phytotoxicity rating 0-100 at 14 days after application.
Where [13] appears, read: pre-emerge, rate 250 g ai/ha, phytotoxicity rating 0-100 at 14 days after application.
Setting [14] is: 63 g ai/ha, phytotoxicity rating 0-100, 14 days after application.
Where [15] appears, read: 250 g ai/ha, phytotoxicity rating 0-100, 14 days after application.

`CC(C)Oc1c(Cl)cc(F)c(N2C(=O)C3=C(CCCC3)C2=O)c1N` [Compound 8-4, N-(2-amino-4-chloro-6-fluoro-3-isopropyloxyphenyl)tetrahydrophthalimide]: the pest or weed control at 63 g/ha amounted to 60% in assay [1] (setting [12]); 0% in assay [2] (setting [12]); 0% in assay [3] (63 g ai/ha); 0% in assay [4] (63 g ai/ha); 0% in assay [5] (63 g ai/ha); 0% in [6] (63 g ai/ha). Also, the pest or weed control at 63 g/ha in [7] (63 g ai/ha) was determined as 70%; in assay [8] (63 g ai/ha), 0%; in [9] (63 g ai/ha) it was 70%; in assay [10] (63 g ai/ha) it was 0%; in assay [11] (63 g ai/ha), 60%. The pest or weed control at 250 g/ha came to 100% in [1] (setting [13]); 90% in assay [2] (setting [13]); 0% in assay [3] (250 g ai/ha); 30% in assay [4] (250 g ai/ha); 20% in [5] (250 g ai/ha); 0% in [6] (250 g ai/ha). Moreover, the pest or weed control at 250 g/ha in assay [7] (250 g ai/ha) turned out to be 90%; in [8] (250 g ai/ha) it was 0%; in assay [9] (250 g ai/ha), 90%; in assay [10] (250 g ai/ha), 10%; in assay [11] (250 g ai/ha) it was 80%.
Turning to `COc1c(Cl)cc(F)c(-n2c(=O)cc(C(F)(F)F)n(C)c2=O)c1NC(N)=O` [Compound 3-26, 3-(2-aminocarbonylamino-4-chloro-6-fluoro-3-methoxyphenyl)-1-methyl-6-trifluoromethyl-2,4(1H, 3H)-pyrimidinedione], the pest or weed control at 63 g/ha in [1] (setting [14]) turned out to be 80%; in assay [2] (setting [14]) it was 75%. Besides, the pest or weed control at 250 g/ha in assay [1] (setting [15]) and in assay [2] (setting [15]) was 100% throughout. Besides, the “phytotoxicity rating ECHCG” value in assay [3] (63 g ai/ha) and in [3] (250 g ai/ha) was 0 each time. In addition, the “phytotoxicity rating SETVI” value in [4] (63 g ai/ha) and in [4] (250 g ai/ha) was 0 each time. The “phytotoxicity rating IPOHE” value in assay [5] (63 g ai/ha) is 60; in assay [5] (250 g ai/ha) it was 90. Besides, the “phytotoxicity rating SORHA” value in assay [6] (63 g ai/ha) and in assay [6] (250 g ai/ha) was 0 each time. Further, the “phytotoxicity rating CHEAL” value in assay [7] (63 g ai/ha) stood at 50; in assay [7] (250 g ai/ha) it was 60. Besides, the “phytotoxicity rating DIGSA” value in assay [8] (63 g ai/ha) and in [8] (250 g ai/ha) was 0 throughout. Further, the “phytotoxicity rating AMARE” value in [9] (63 g ai/ha, rating scale 0-100 (0 no damage, 100 complete death)) was found to be 50; in assay [9] (250 g ai/ha, rating scale 0-100), 65. For the same compound, the “phytotoxicity rating CASOB” value in assay [10] (63 g ai/ha) came to 20; in assay [10] (250 g ai/ha), 60. In addition, the “phytotoxicity rating ABUTH” value in assay [11] (63 g ai/ha) and in assay [11] (250 g ai/ha) was 60 each time.
For `Cc1nn(-c2c(Cl)cc(Cl)c(N)c2N)c(=O)n1C(F)F` [Compound 6-20], the pest or weed control at 63 g/ha was 10% in assay [1] (setting [12]); 0% in assay [2] (setting [12]); 0% in assay [3] (63 g ai/ha); 0% in [4] (63 g ai/ha); 0% in [5] (63 g ai/ha); 0% in [6] (63 g ai/ha). Also, the pest or weed control at 63 g/ha in assay [7] (63 g ai/ha), in assay [8] (63 g ai/ha), in assay [9] (63 g ai/ha), in assay [10] (63 g ai/ha) and in assay [11] (63 g ai/ha) was 0% in each case. Besides, the pest or weed control at 250 g/ha in assay [1] (setting [13]) was found to be 0%; in assay [2] (setting [13]), 0%; in assay [3] (250 g ai/ha), 0%; in assay [4] (250 g ai/ha), 0%; in assay [5] (250 g ai/ha), 40%; in [6] (250 g ai/ha), 0%. The pest or weed control at 250 g/ha is 60% in assay [7] (250 g ai/ha); 0% in assay [8] (250 g ai/ha); 60% in assay [9] (250 g ai/ha); 0% in assay [10] (250 g ai/ha); 50% in [11] (250 g ai/ha).

Values taken from patent US6355799B1, “Substituted benzene compounds, process for their preparation, and herbicidal and defoliant compositions containing them” (ISK Americas Incorporated, priority 1997, dated 2002).
